This note sets out measurements from patent US6083958A, “Anti-HIV composition containing imidazole derivative” (Shionogi & Co., Ltd., priority 1996, dated 2000).

Assay [1] relates to HIV-1 (IIIB strain clone 2). In words: Synergy of anti-HIV activity, viral reverse transcriptase activity in supernatant of infected MT-4 cells (checker board). In kind it is cell-based.
Experimental: Human T cell line Molt-4 cells persistently infected with HIV-1 (IIIB strain clone 2) were cultured in RPMI-1640 medium supplemented with 10% fetal calf serum, and the supernatant was filtered and stored at -80° C. after the virus titer was determined.
The combination of these two drugs was conducted by the checker board method using 96-well microplates. […] After 4 hours, 50 μl of the culture supernatant of the above HIV-1 IIIB strain clone 2 was added, at the same time 50 μl of CDIMI in two-fold dilution was also added, followed by incubation in 5% CO2 incubator at 37° C. for 5 days.
Virus titers in the culture supernatant were calculated by taking viral reverse transcriptase activity as an index determined by the following method:
To 100 μl of a reaction mixture containing 50 mM Tris-HCl, pH 8.3, 150 mM KCl, 10 mM MgCl2, 0.1% Nonidet P-40, 10 mM dithiothreitol, 5 μg/l poly(A), 5 μg/ml (dT)12-18, and 1 μCi [^3 H]dTTP was added 10 μl of the culture supernatant, and incubated at 37° C. for 3 hours. The reaction mixture was chilled on ice and transferred by a cell harvester to a DEAE-Filtermat. The filter was washed with 5% Na2 HPO4.12H2 O and H2 O, and the radioactivity incorporated in DNA was measured by an LKB Beta Plate scintillation counter to determine viral reverse transcriptase activity.
On the assumption that the inhibition of the two anti-HIV compounds was additive, virus growth inhibition rate was calculated on all combinations of concentrations according to the formula (I)
wherein Z means an additive inhibition rate, X is an inhibition rate of CDIMI and Y is an inhibition rate of the other anti-HIV compound.
When the measured value is greater than the additive inhibition rate, namely, the value is more than 0 in Table 3, it is judged as having synergy. Synergy volume is designated as total sum of values more than 0 in Table 3.
Addition to cells of saquinavir and foscarnet was done at the same time as that of CDIMI when the virus was infected. […]
The subject of assay [2] is HIV-1 IIIB strain clone 3. The assay is described as follows: Suppression of the emergence of drug resistant variants in M 8166 cells. The format is cell-based. To be noted: for Week of emergence of resistant mutants: CDIMI 1 ng/ml, ddC 50 ng/ml at start, doubled on viral growth; for Ratio of resistance compared to parent strain: isolated resistant virus vs parent strain. As for the experimental part:
an T cell line Molt-4 cells persistently infected with HIV-1 (IIIB strain clone 3) were cultured in RPMI-1640 medium supplemented with 10% fetal calf serum, the supernatant was filtered and stored at […], after the virus titer was determined.
One ml of the above medium containing 10^6 cells of M 8166 was added to each well of 12-well plates, and 100 μl of the above HIV-1 IIIB strain clone 3 was added, and incubated for 2 hours for virus infection. Cells were washed with the above medium, and 4 ml of the medium containing CDIMI or other anti-HIV compounds alone or their combination was added to each well and incubated in 5% CO2 incubator at 37° C. CDIMI was added at 1 ng/ml and ddC was added at 50 ng/ml respectively and the same concentrations of them were added for the combination. Cells were subcultured twice a week, and when viral growth was observed, the drug concentration of the anti-HIV compound was doubled. In the case that no viral growth was observed, the drug concentration was kept the same as that of the last culture.
Virus titer was determined using viral reverse transcriptase activity as a marker by the following method.
To 100 μl of the reaction mixture containing 50 mM Tris-HCl, pH 8.3, 150 mM KCl, 10 mM MgCl2, 0.1% Nonidet P-40, 10 mM dithiothreitol, 5 μg/ml poly(A), 5 μg/ml (dT) 12-18, and 1 μCi [^3 H] dTTP was added 10 μl of the culture supernatant, and incubated at 37° C. for 3 hours. The reaction mixture was chilled on ice and collected by a cell harvester on a DEAE-Filtermat. The filter was washed with 5% Na2 HP04.12H2 O and H2 O, and the radioactivity incorporated in DNA was measured by an LKB Beta Plate scintillation counter to determine viral reverse transcriptase activity.
When virus growth was observed, viruses were isolated and the sensitivity to each active ingredient was assayed by the usual method.

Another assay relates to D67N + K70R. The assay is described as follows: microbe, parasite or virus in culture. In kind it is cell-based, HIV. As for the experimental part:
(§1) The mutant clones' cDNAs were transfected to SW480 cells. The produced mutant viruses were infected to MT-4 cells in the same method as described in Experiment 1 in the presence of the drug. After 4 days, viral growth was assayed using reverse transcriptase activity as a marker.

A further assay concerns F227C. In words: microbe, parasite or virus in culture. In kind it is cell-based, HIV. To be noted: Human immunodeficiency virus 1, MT4, 96 h. As for the experimental part:
as §1

Another assay deals with L234I. The assay is described as follows: microbe, parasite or virus in culture. In kind it is cell-based, HIV. Particulars: Human immunodeficiency virus 1, MT4, 96 h. The protocol:
as §1

Another assay has as its system NL432 (Wild strain). The assay is described as follows: microbe, parasite or virus in culture. The format is cell-based, HIV. To be noted: Human immunodeficiency virus 1, MT4, 96 h. The protocol:
as §1

The next assay has as its system T215Y + L234I. In words: microbe, parasite or virus in culture. In kind it is cell-based, HIV. The protocol: as §1
The next assay relates to T215Y. In words: microbe, parasite or virus in culture. The format is cell-based, HIV. As for the experimental part:
as §1

For a further assay, the system named is V106A + F227L. The assay is described as follows: microbe, parasite or virus in culture. In kind it is cell-based, HIV. To be noted: Human immunodeficiency virus 1, MT4, 96 h. As for the experimental part:
as §1

The subject of another assay is Y181C. In words: microbe, parasite or virus in culture. To be noted: Human immunodeficiency virus 1, MT4, 96 h. In kind it is cell-based, HIV. As for the experimental part:
as §1

For assay [3], the system named is CDIMI resistant or AZT resistant mutant clones of HIV. In words: Cross resistance of CDIMI resistant and AZT resistant mutant clones. In kind it is cell-based. As for the experimental part:
as §1

[4] abbreviates: Human immunodeficiency virus 1, MT4, 96 h.

In brackets after ≈: the same amount, converted by molar mass.

For the molecule `Cc1cn([C@H]2C[C@H](N=[N+]=[N-])[C@@H](CO)O2)c(=O)[nH]c1=O` [AZT, azidodeoxythymidine, reference compound], the inhibition at 0.0008 µg/mL in [1] (Human immunodeficiency virus 1, IIIB, MT4, read-out: inhibition rate Y of the other anti-HIV compound) worked out at 43.4%.
On to `CC(C)c1nc(COC(N)=O)n(Cc2ccncc2)c1Sc1cc(Cl)cc(Cl)c1` [CDIMI, 2-carbamoyloxymethyl-5-(3,5-dichlorophenylthio)-4-iropropyl-1-(pyridin-4-yl) methyl-1H-imidazole], for which, in assay [1] (Human immunodeficiency virus 1, IIIB, MT4, read-out: inhibition rate X of CDIMI), the inhibition at 0.005 µg/mL was 99.6%. In assay [1] (ddI 0 ng/ml (Table 4), lines in order CDIMI 5, 2.5, 1.25, 0.625, 0.313, 0.16, 0.08 ng/ml, 7200 min), the “reverse transcriptase inhibition rate (%)” value was determined as 99.01%. Further, the “Week of emergence of resistant mutants” value in assay [2] is 4 weeks. The “Ratio of resistance compared to parent strain” value in assay [2] was found to be 10 times. The sensitivity of strain entry was “equivalent to that of the wild strain” in the assay on D67N + K70R (D67N plus K70R); “sensitive to CDIMI and AZT at the same level as the wild strain's” in the assay on T215Y + L234I (T215Y plus L234I); “equivalent to that of the wild strain” with T215Y (T215Y). Moreover, the EC50 was 0.31 ng/mL (≈ 0.687 nM) in the assay on D67N + K70R (setting [4]); 2.4 ng/mL (≈ 5.32 nM) in the assay on F227C; 6.8 ng/mL (≈ 15.1 nM) in the assay with L234I; 0.31 ng/mL (≈ 0.687 nM) in the assay on NL432 (Wild strain); 0.69 ng/mL (≈ 1.53 nM) in the assay with T215Y + L234I (setting [4]); 0.17 ng/mL (≈ 0.377 nM) with T215Y (setting [4]). The EC50 with V106A + F227L was found to be 117 ng/mL (≈ 259 nM); with Y181C, 4.2 ng/mL (≈ 9.3 nM). Moreover, the EC90 with D67N + K70R (setting [4]) amounted to 1 ng/mL (≈ 2.22 nM); in the assay with F227C it was 9.8 ng/mL (≈ 21.7 nM); with L234I it was 14 ng/mL (≈ 31 nM); in the assay on NL432 (Wild strain), 1.1 ng/mL (≈ 2.44 nM); with T215Y + L234I (setting [4]), 2.7 ng/mL (≈ 5.98 nM); in the assay on T215Y (setting [4]), 0.4 ng/mL (≈ 0.886 nM). Besides, the EC90 with V106A + F227L turned out to be 310 ng/mL (≈ 687 nM); with Y181C it was 18 ng/mL (≈ 39.9 nM). Also, in [3], the cross resistance result is reported as “do not show cross resistance”.
For the molecule `Nc1ccn([C@H]2CC[C@@H](CO)O2)c(=O)n1` [ddC, dideoxycytidine, reference compound], in assay [2], the “Week of emergence of resistant mutants” value was determined as 1 weeks and the “Ratio of resistance compared to parent strain” value is 20 times.
